The source of these data is patent US11530193B2, “Kinase inhibitors” (The University of Manchester, priority 2018, dated 2022).

Structures are written as SMILES. Counter-ions that a name gives are not always drawn. Like-named read-outs stand apart in the source and are kept apart here.

Assay [1] concerns the target T1, CAMK1D (Homo sapiens (Human), UniProt Q8IU85). Briefly: Tm-Shift assay (thermal melting, SYPRO Orange). To be noted: for ΔTm at 10 µM: read-out: CAMK1d Tm-Shift; for CAMK1d Tm-Shift: compound 10 μM, protein 2 μM, ΔTm obs vs protein without ligand, triplicate. Type of assay: binding.
The target in the next assay is SYK (Homo sapiens (Human), UniProt P43405). Description: Tm-Shift assay (thermal melting, SYPRO Orange). It is filed as binding.
In assay [2] the target is T1, CAMK1D. Briefly: Biochemical CaMK1D enzymatic activity assay (ADP-Glo Kinase Assay). The following applies: 3 nM CaMK1D, 1 μM Calmodulin, […] Autocamtide-2, 10 μM ATP, 25C, 2 hours. On the technique in general: In ADP-Glo the light output rises with the ADP produced.
Where [3] appears, read: compound 10 μM, protein 2 μM, ΔTm obs vs protein without ligand, triplicate.
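Throughout, for SYK Tm-Shift: recombinant His-tagged protein made in Sf9 insect cells by baculovirus, in HEPES NaCl buffer, heated stepwise with fluorescence recorded at every temperature step.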

Turning to `CC(C)(C)c1cccc(Nc2nc(N3CCCC(N)C3)ncc2C(N)=O)c1` (stereo not drawn) [Example 1, 2-(3-aminopiperidin-1-yl)-4-((3-(tert-butyl)phenyl)amino)pyrimidine-5-carboxamide], on CAMK1D [1], the ΔTm at 10 µM worked out at 10.6 °C.
As for `CC(C)(C)c1cc(Nc2nc(N3CCCC(N)C3)ncc2C(N)=O)cc(C(C)(C)C)c1` (stereo not drawn) [Example 2, 2-(3-aminopiperidin-1-yl)-4-((3,5-di-tert-butylphenyl)amino)pyrimidine-5-carboxamide], the ΔTm at 10 µM on CAMK1D [1] was 14 °C.
Same read-out and setting: under `CC(C)(C)c1cc(Nc2nc(N3CCC[C@H](N)C3)ncc2C(N)=O)cc(C(C)(C)C)c1` [Example 3, (S)-2-(3-aminopiperidin-1-yl)-4-((3,5-di-tert-butylphenyl)amino)pyrimidine-5-carboxamide] stands 13.4 °C.
Consider `CC(C)(C#N)c1cccc(Nc2nc(N3CCC[C@H](N)C3)ncc2C(N)=O)c1` [Example 4, (S)-2-(3-aminopiperidin-1-yl)-4-((3-(2-cyanopropan-2-yl)phenyl)amino)pyrimidine-5-carboxamide], for which, on CAMK1D [1], the ΔTm at 10 µM worked out at 9 °C.
Consider `Cc1ccc(Nc2nc(N3CCC[C@H](N)C3)ncc2C(N)=O)cc1S(=O)(=O)N1CCCCC1` [Example 6, (S)-2-(3-aminopiperidin-1-yl)-4-((4-methyl-3-(piperidin-1-ylsulfonyl)phenyl)amino) pyrimidine-5-carboxamide], for which the “CAMK1d Tm-Shift” value at CAMK1D [1] amounted to 9.9 °C. For the same molecule, the “SYK Tm-Shift” value on SYK turned out to be 3.3 °C.
With `CC(C)(C)c1cc(Nc2nc(N3CCC[C@@H](N)C3)ncc2C(N)=O)cc(C(C)(C)C)c1` [Example 7, (R)-2-(3-aminopiperidin-1-yl)-4-((3,5-di-tert-butylphenyl)amino)pyrimidine-5-carboxamide hydrochloride], the ΔTm at 10 µM on CAMK1D [1] turned out to be 10.6 °C.
On to `CS(=O)(=O)c1cc(Nc2nc(N3CCC[C@H](N)C3)ncc2C(N)=O)cc(S(C)(=O)=O)c1.Cl` [Example 9, (S)-2-(3-aminopiperidin-1-yl)-4-((3,5-bis(methylsulfonyl)phenyl)amino)pyrimidine-5-carboxamide hydrochloride], for which the ΔTm at 10 µM at CAMK1D [1] came to 10.1 °C. In addition, the “SYK Tm-Shift” value on SYK is 0.2 °C.
Turning to `CN(C)CCN(C)C(=O)c1cccc(Nc2nc(N3CCC[C@H](N)C3)ncc2C(N)=O)c1` [Example 25, (S)-2-(3-aminopiperidin-1-yl)-4-((3-((2-(dimethylamino)ethyl)(methyl)carbamoyl)phenyl)amino) pyrimidine-5-carboxamide], the “CAMK1d Tm-Shift” value on CAMK1D [1] turned out to be 8.1 °C. The “SYK Tm-Shift” value at SYK is 0.7 °C.
In the same order, the values of `CN(C)C(=O)c1cc(Nc2nc(N3CCC[C@H](N)C3)ncc2C(N)=O)cc(C(C)(C)C)c1` [Example 27, (S)-2-(3-aminopiperidin-1-yl)-4-((3-(tert-butyl)-5-(dimethylcarbamoyl)phenyl)amino) pyrimidine-5-carboxamide] are 12.5 °C and 0.4 °C.
Turning to `CC(C)(C)c1cc(Nc2nc(N3CCC[C@H](N)C3)ncc2C(N)=O)cc(C(=O)N2CCCC2)c1` [Example 28, (S)-2-(3-aminopiperidin-1-yl)-4-((3-(tert-butyl)-5-(pyrrolidine-1-carbonyl)phenyl)amino)pyrimidine-5-carboxamide], the ΔTm at 10 µM on CAMK1D [1] was 11.8 °C. Moreover, the “SYK Tm-Shift” value on SYK (setting [3]) turned out to be 0.5 °C.
Turning to `CC(C)(C)c1cc(Nc2nc(N3CCC[C@H](N)C3)ncc2C(N)=O)cc(C(=O)N2CCOCC2)c1` [Example 29, (S)-2-(3-aminopiperidin-1-yl)-4-((3-(tert-butyl)-5-(morpholine-4-carbonyl)phenyl)amino)pyrimidine-5-carboxamide], the ΔTm at 10 µM on CAMK1D [1] is 12.4 °C. Also, the “SYK Tm-Shift” value at SYK (setting [3]) was 0.3 °C.
Take `CC1(C)COCCN1C(=O)c1cccc(Nc2nc(N3CCC[C@H](N)C3)ncc2C(N)=O)c1` [Example 30, (S)-2-(3-aminopiperidin-1-yl)-4-((3-(3,3-dimethylmorpholine-4-carbonyl)phenyl)amino) pyrimidine-5-carboxamide]: the “CAMK1d Tm-Shift” value at CAMK1D [1] came out at 9.5 °C. The “SYK Tm-Shift” value at SYK came to 2.0 °C.
As for `CC1(C)COCCN1C(=O)c1cc(Nc2nc(N3CCC[C@H](N)C3)ncc2C(N)=O)cc(C(F)(F)F)c1` [Example 32, (S)-2-(3-aminopiperidin-1-yl)-4-((3-(3,3-dimethylmorpholine-4-carbonyl)-5-(trifluoromethyl)phenyl)amino)pyrimidine-5-carboxamide], the ΔTm at 10 µM at CAMK1D [1] worked out at 11.2 °C. Moreover, the “SYK Tm-Shift” value at SYK (setting [3]) was found to be 2.1 °C.
The matching figures for `Cc1ccccc1-c1cc(Nc2nc(N3CCC[C@H](N)C3)ncc2C(N)=O)cc(C(=O)N2CCOCC2)c1` [Example 44, (S)-2-(3-aminopiperidin-1-yl)-4-((2′-methyl-5-(morpholine-4-carbonyl)-[1,1′-biphenyl]-3-yl)amino)pyrimidine-5-carboxamide]: 10.9 °C and −0.3 °C.
The matching figures for `COC(=O)c1cc(Nc2nc(N3CCC[C@H](N)C3)ncc2C(N)=O)cc(C(C)(C)C#N)c1` [Example 45, Methyl (S)-3-((2-(3-aminopiperidin-1-yl)-5-carbamoylpyrimidin-4-yl)amino)-5-(2-cyanopropan-2-yl)benzoate]: 12.6 °C and 4.6 °C.
In the case of `NC(=O)c1cnc(N2CCC[C@H](N)C2)nc1Nc1cc(-c2ccccc2)c2cn[nH]c2c1` [Example 60, (S)-2-(3-aminopiperidin-1-yl)-4-((4-phenyl-1H-indazol-6-yl)amino)pyrimidine-5-carboxamide], the ΔTm at 10 µM at CAMK1D [1] was found to be 9.9 °C. In addition, inhibition against CAMK1D [2] was half-maximal at 10 nM (IC50).
Regarding `CC(C)(C)c1cc(Nc2nc(N3CCC[C@H](N)C3)ncc2C(N)=O)cc(S(=O)(=O)N2CCCC2)c1` [Example 103, (S)-2-(3-aminopiperidin-1-yl)-4-((3-(tert-butyl)-5-(pyrrolidin-1-ylsulfonyl)phenyl)amino)pyrimidine-5-carboxamide], the ΔTm at 10 µM at CAMK1D [1] is 12.2 °C. On SYK (setting [3]), the “SYK Tm-Shift” value amounted to 0.7 °C.
For the molecule `CC(C)(C)c1cc(Nc2nc(N3CCC[C@H](N)C3)ncc2C(N)=O)cc(S(=O)(=O)N2CCOCC2)c1` [Example 104, (S)-2-(3-aminopiperidin-1-yl)-4-((3-(tert-butyl)-5-(morpholinosulfonyl)phenyl)amino) pyrimidine-5-carboxamide], on CAMK1D [1], the “CAMK1d Tm-Shift” value is 11.5 °C. Further, the “SYK Tm-Shift” value on SYK stood at 0.9 °C.
Consider `CN(C)S(=O)(=O)c1cc(Nc2nc(N3CCC[C@H](N)C3)ncc2C(N)=O)cc(C(C)(C)C)c1` [Example 105, (S)-2-(3-aminopiperidin-1-yl)-4-((3-(tert-butyl)-5-(N,N-dimethylsulfamoyl)phenyl)amino) pyrimidine-5-carboxamide], for which the “CAMK1d Tm-Shift” value at CAMK1D [1] was found to be 12.9 °C. For the same molecule, the “SYK Tm-Shift” value on SYK was 1.3 °C.
As to `CNS(=O)(=O)c1cc(Nc2nc(Cl)ncc2C(N)=O)cc(C(F)(F)F)c1` [Example 108, 2-chloro-4-((3-(N-methylsulfamoyl)-5-(trifluoromethyl)phenyl)amino)pyrimidine-5-carboxamide], the ΔTm at 10 µM at CAMK1D [1] was 10.7 °C. For the same molecule, on SYK (setting [3]), the “SYK Tm-Shift” value came to 0.3 °C.
With `COC1(c2cc(Nc3nc(N4CCC[C@H](N)C4)ncc3C(N)=O)cc(C(F)(F)F)c2)CC1` [Example 122, (S)-2-(3-aminopiperidin-1-yl)-4-((3-(1-methoxycyclopropyl)-5-(trifluoromethyl)phenyl)amino)pyrimidine-5-carboxamide], the ΔTm at 10 µM at CAMK1D [1] was -0.8 °C.

A word on the IC50: it is the concentration that inhibits the measured activity by half. Lower therefore signals inhibition by little substance.
